This is an account of results in PMC3526141 (Bioorganic & medicinal chemistry letters, 2012).

The target in the experiment is Prostate-specific membrane antigen (PSMA) (Homo sapiens, UniProt Q04609). Briefly: inhibition of purified PSMA enzymatic activity. It counts as biochemical.

pIC50: −log10 of the molar value.

Chain of Prostate-specific membrane antigen (PSMA) (Q04609 whole entry): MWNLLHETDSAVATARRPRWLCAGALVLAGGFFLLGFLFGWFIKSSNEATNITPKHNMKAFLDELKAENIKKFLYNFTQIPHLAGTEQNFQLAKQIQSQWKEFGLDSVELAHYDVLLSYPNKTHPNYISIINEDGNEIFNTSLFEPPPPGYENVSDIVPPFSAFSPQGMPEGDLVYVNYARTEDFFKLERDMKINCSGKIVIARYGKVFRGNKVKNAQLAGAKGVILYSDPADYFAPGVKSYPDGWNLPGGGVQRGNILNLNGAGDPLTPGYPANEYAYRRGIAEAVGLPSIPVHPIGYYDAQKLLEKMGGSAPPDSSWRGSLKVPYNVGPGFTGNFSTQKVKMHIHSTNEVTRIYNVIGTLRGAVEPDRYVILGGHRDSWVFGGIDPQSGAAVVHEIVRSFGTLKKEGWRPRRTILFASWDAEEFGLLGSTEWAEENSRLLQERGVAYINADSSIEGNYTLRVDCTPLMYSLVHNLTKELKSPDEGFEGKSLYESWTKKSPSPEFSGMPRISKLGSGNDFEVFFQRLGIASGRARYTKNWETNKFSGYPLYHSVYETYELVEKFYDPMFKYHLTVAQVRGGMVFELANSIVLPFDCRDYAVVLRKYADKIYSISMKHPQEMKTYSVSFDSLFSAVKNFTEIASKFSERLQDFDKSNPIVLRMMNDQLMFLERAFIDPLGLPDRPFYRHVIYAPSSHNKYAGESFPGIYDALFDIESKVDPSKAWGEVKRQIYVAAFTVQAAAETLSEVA

Regarding biotin-CTT54, the pIC50 is 8.92. biotin-PEG4-CTT54 gave a pIC50 of 8.60.

biotin-PEG12-CTT54 had a negative-log IC50 (pIC50) of 8.00. Against the preceding substance, the pIC50 is 0.60 log units lower.
